From PubChem BioAssay (NCI)
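In this assay, cells in 96-well plates receive the compound at five concentrations for 48 hours. Endpoints are linearly interpolated between the surrounding concentrations. The concentration for 50% growth inhibition is given as GI50. TGI marks complete inhibition of growth.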

How the values were obtained:
Assay in all cases: NCI anticancer screen, dose series, 48 h
[1] = system: A498 renal
[2] = system: RPMI-8226 leukemia
[3] = system: KM12 colon
[4] = system: DU-145 prostate
[5] = system: HCT-116 colon
[6] = system: HL-60(TB) leukemia
[7] = system: BT-549 breast
[8] = system: OVCAR-5 ovarian
[9] = system: T-47D breast
[10] = system: NCI-H226 lung
[11] = system: K-562 leukemia
[12] = system: MDA-MB-435
[13] = system: A549 NSCLC
[14] = system: HCT-15 colon
[15] = system: SNB-75 CNS
[16] = system: MALME-3M melanoma
[17] = system: 786-0 renal
[18] = system: NCI-H460 lung
[19] = system: SF-539 CNS
[20] = system: UO-31 renal
[21] = system: SF-268 CNS
[22] = system: PC-3 prostate
[23] = system: NCI-H522 lung
[24] = system: SK-MEL-28 melanoma
[25] = system: OVCAR-8 ovarian
[26] = system: U251 CNS
[27] = system: HT29 colon
[28] = system: MCF7 breast

## Nc1c(C(=O)Nc2cccc(C(F)(F)F)c2)sc2nc3c(cc12)CCCCCC3
[1]
  TGI: 5.51 µM
[2]
  GI50: 2.96 µM
  TGI: 17.5 µM
[3]
  GI50: 4.08 µM
  TGI: 23.5 µM
[4]
  GI50: 2.65 µM
  TGI: 10.2 µM
[5]
  GI50: 1.69 µM
  TGI: 4.34 µM
[6]
  GI50: 11.3 µM
  TGI: > 100 µM
[7]
  GI50: 2.54 µM
  TGI: 9.59 µM
[8]
  GI50: 3.29 µM
  TGI: 13.7 µM
[9]
  GI50: 1.35 µM
  TGI: 6.2 µM
[10]
  GI50: 1.76 µM
  TGI: 11.9 µM
[11]
  GI50: 3.65 µM
  TGI: 20 µM
[12]
  GI50: 2.1 µM
  TGI: 13.9 µM
[13]
  GI50: 1.77 µM
  TGI: 5.08 µM
[14]
  GI50: 2.63 µM
  TGI: 15.3 µM
[15]
  GI50: 1.73 µM
  TGI: 3.47 µM
[16]
  GI50: 3.54 µM
  TGI: 11.3 µM
[17]
  GI50: 1.6 µM
  TGI: 3.12 µM
[18]
  GI50: 2.32 µM
  TGI: 7.52 µM
[19]
  GI50: 1.71 µM
  TGI: 3.37 µM
[20]
  GI50: 2.18 µM
  TGI: 8.57 µM
[21]
  GI50: 2.36 µM
  TGI: 6.77 µM
[22]
  GI50: 4.31 µM
  TGI: 32.7 µM
[23]
  GI50: 4.09 µM
  TGI: 26.9 µM
[24]
  GI50: 3.36 µM
  TGI: 15.9 µM
[25]
  GI50: 2.24 µM
  TGI: 6.82 µM
[26]
  GI50: 2.58 µM
  TGI: 10.5 µM
[27]
  GI50: 3.24 µM
  TGI: 32.4 µM
[28]
  GI50: 2.44 µM
  TGI: 11.2 µM
